# Reference: paper PMC6412019, “Discovery of NV-5138, the first selective Brain mTORC1 activator” (Scientific Reports, 2019)
# System: HeLa cells
# Test: 14C-leucine protein incorporation assay in HeLa cells
# Format: cell-based, human
# Details: 30 min labeling, CHX 10 ug/ml
# Method: Since NV-5138 is an amino acid, we performed two different experiments to rule out any potential liabilities that could arise from the incorporation of NV-5138 into proteins. We first determined whether NV-5138 substitutes for any branched-chain amino acid or methionine into newly synthesized proteins using liquid chromatography followed by tandem mass spectroscopy (LC-MS/MS). NV-5138 (100 µM) or vehicle was incubated with serum and leucine-starved 293T cells for 6 hours followed by proteomic analysis by mass spectrometry.
# After incubation, cells were harvested and lysed in Tris/HCl 10 mM pH 7.4 plus 1% NP40. Lysate were mixed with water and 20% trichloroacetic acid (1:1:2) and incubated on ice for 2 h to precipitate the protein. Proteins were collected by centrifugation, solubilized in NaOH, placed in scintillation fluid and read on a Wallac Microbeta Trilux 2450 with a 2-min count. Scintillation values were normalized as the percentage of the counts from the DMSO-treated wells.
compound,measurement,value
"C[C@@H]1C[C@@H]([C@H](O)CC2CC(=O)NC(=O)C2)C(=O)[C@@H](C)C1 [cyclohexamide, reference compound]",effect on incorporation of 14C-leucine into precipitated proteins,blocked incorporation
